Broadly, the pIC50 is −log10 of the IC50, conventionally taken in molar units.

This note sets out measurements from patent publication US20250163104A1, “MACROCYCLIC IMMUNOMODULATORS” (priority 2021, published 2025).

The structures appear in SMILES notation. pIC50: −log10 of the molar value. Where two headings read alike, the source gives them in different places. Where a SMILES comes first, the peptide text is derived from it. Bridges are numbered along the chain shown (N, C = ends). [ ]: non-standard residue; d: D form. The star is where a group is joined. ξ: configuration not given here. Bip = N[C@@H](Cc1ccc(-c2ccccc2)cc1)C(=O)O; Phe(3-Me) = Cc1cccc(C[C@H](N)C(=O)O)c1; 4Pal = N[C@@H](Cc1ccncc1)C(=O)O; Cha = N[C@@H](CC1CCCCC1)C(=O)O; Cit = NC(=O)NCCC[C@H](N)C(=O)O; Ile(3ξ) = CCC(C)[C@H](N)C(=O)O; dCha = N[C@H](CC1CCCCC1)C(=O)O; Thr(3ξ) = CC(O)[C@H](N)C(=O)O; Dap(Me) = CNC[C@H](N)C(=O)O; Carboxymethyl = O=C(O)C*; Orn = NCCC[C@H](N)C(=O)O; Dab = NCC[C@H](N)C(=O)O; Dap = NC[C@H](N)C(=O)O

This experiment has as its target T1, human PD-1 / PD-L1-Ig binding on Jurkat cell line over-expressing human PD-1 (Jurkat-PD-1) (Homo sapiens, UniProt Q15116).
T1 construct: expressed in transfected cells; host or cells: Jurkat
The experiment can be described thus: Jurkat-PD-1 Cell Binding High-Content Screening Assay (CBA). It counts as cell-based. As to conditions: PE-labeled PD-L1-Ig 20 nM final. A digest of the protocol: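 Binding of fluorescent PD-L1-Ig (phycoerythrin linked via the Ig tag, 20 nM final) to PD-1-overexpressing Jurkat cells was imaged after a 2 h, 37° C compound pretreatment and 1 hour ligand incubation.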

Where [1] appears, read: Jurkat-PD-1 cells, read-out: Jurkat HPD1_PDL1 IC50.

T1 sequence (Q15116 25-288): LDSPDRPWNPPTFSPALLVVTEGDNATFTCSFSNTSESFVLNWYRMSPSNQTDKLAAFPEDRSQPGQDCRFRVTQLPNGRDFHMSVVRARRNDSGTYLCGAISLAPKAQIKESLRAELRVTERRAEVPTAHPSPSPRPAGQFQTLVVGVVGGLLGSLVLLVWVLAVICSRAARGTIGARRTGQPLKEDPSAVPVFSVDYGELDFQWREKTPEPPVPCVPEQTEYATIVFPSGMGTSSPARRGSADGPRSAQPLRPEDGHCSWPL

On to `CC(C)C[C@@H]1NC(=O)[C@H](CCN)NC(=O)[C@@H](CC(C)C)NC(=O)[C@H](CCCN)NC(=O)[C@H](C(C)C)NC(=O)[C@H](Cc2ccc(-c3ccccc3)cc2)NC(=O)[C@H](C(C)C)NC(=O)[C@H](Cc2c[nH]c3ccccc23)NC(=O)[C@H](CC(=O)O)NC(=O)[C@H](Cc2ccc(OCC(=O)O)cc2)NC(=O)[C@H](Cc2ccncc2)NC(=O)CSC[C@@H](C(=O)N[C@@H](C)C(N)=O)NC(=O)[C@H]([C@@H](C)O)NC(=O)[C@H](C(C)C)NC1=O` [Compound 1051] ({CH2CO}-[4Pal]Y(Carboxymethyl)DWV[Bip]V[Orn][dL][Dab]LVTCA-NH2; thioether N-14), for which the pIC50 under setting [1] was 8.28.

Take `CCC(C)[C@@H]1NC(=O)[C@H](Cc2ccc(-c3ccccc3)cc2)NC(=O)[C@H](C(C)C)NC(=O)[C@H](Cc2c[nH]c3ccccc23)NC(=O)[C@H](CC(=O)O)NC(=O)[C@H](Cc2ccc(OCC(=O)O)cc2)NC(=O)[C@H](CNC)NC(=O)CSC[C@@H](C(=O)N[C@@H](C)C(N)=O)NC(=O)[C@H](C(C)O)NC(=O)[C@H](C(C)C)NC(=O)[C@H](CC(C)C)NC(=O)[C@H](CCN)NC(=O)[C@@H](CC(C)C)NC(=O)[C@H](CCCN)NC1=O` (stereo partly drawn) [Compound 2512] ({CH2CO}-[Dap(Me)]Y(Carboxymethyl)DWV[Bip][Ile(3ξ)][Orn][dL][Dab]LV[Thr(3ξ)]CA-NH2; thioether N-14): under setting [1], the pIC50 was 7.97.

Consider `Cc1cccc(C[C@@H]2NC(=O)[C@H](CC(=O)O)NC(=O)[C@H](Cc3ccc(OCC(=O)O)cc3)NC(=O)[C@H](CN)NC(=O)CSC[C@@H](C(=O)N[C@@H](C)C(N)=O)NC(=O)[C@H](CCCNC(=N)N)NC(=O)[C@H](C(C)C)NC(=O)[C@H](CC3CCCCC3)NC(=O)[C@H](CCN)NC(=O)[C@@H](CC(C)C)NC(=O)[C@H](CCCN)NC(=O)[C@H](C(C)C)NC(=O)[C@H](Cc3ccc(-c4ccccc4)cc3)NC(=O)[C@H](C(C)C)NC2=O)c1` [Compound 1756] ({CH2CO}-[Dap]Y(Carboxymethyl)D[Phe(3-Me)]V[Bip]V[Orn][dL][Dab][Cha]VRCA-NH2; thioether N-14), for which the pIC50 under setting [1] is 8.26.

With `CC(C)[C@@H]1NC(=O)[C@H](Cc2c[nH]c3ccccc23)NC(=O)[C@H](CC(=O)O)NC(=O)[C@H](Cc2ccc(OCC(=O)O)cc2)NC(=O)[C@H](Cc2ccc(OCC(=O)O)cc2)NC(=O)CSC[C@@H](C(=O)N[C@@H](C)C(N)=O)NC(=O)[C@H]([C@@H](C)O)NC(=O)[C@H](C(C)C)NC(=O)[C@H](CC2CCCCC2)NC(=O)[C@H](CCN)NC(=O)[C@@H](CC2CCCCC2)NC(=O)[C@H](CCCN)NC(=O)[C@H](C(C)C)NC(=O)[C@H](Cc2ccc(-c3ccccc3)cc2)NC1=O` [Compound 1633] ({CH2CO}-Y(Carboxymethyl)Y(Carboxymethyl)DWV[Bip]V[Orn][dCha][Dab][Cha]VTCA-NH2; thioether N-14), the pIC50 under setting [1] is 7.69.

The compound `CC(C)C[C@H]1NC(=O)[C@H](CCCN)NC(=O)[C@H](CCCCN)NC(=O)[C@H](Cc2ccc(-c3ccccc3)cc2)NC(=O)[C@H](C(C)C)NC(=O)[C@H](Cc2c[nH]c3ccccc23)NC(=O)[C@H](CC(=O)O)NC(=O)[C@H](Cc2ccc(OCC(=O)O)cc2)NC(=O)[C@H](Cc2ccncc2)NC(=O)CSC[C@@H](C(=O)N[C@@H](C)C(N)=O)NC(=O)[C@H]([C@@H](C)O)NC(=O)[C@H](C(C)C)NC(=O)[C@H](CC2CCCCC2)NC(=O)[C@H](CCN)NC1=O` [Compound 1373] had a pIC50 (Jurkat HPD1_PDL1 IC50, Jurkat-PD-1 cells) of 7.95.

For `Cc1cccc(C[C@@H]2NC(=O)[C@H](CC(=O)O)NC(=O)[C@H](Cc3ccc(OCC(=O)O)cc3)NC(=O)[C@H](CN)NC(=O)CSC[C@@H](C(N)=O)NC(=O)[C@H](CCCN)NC(=O)[C@H](C(C)C)NC(=O)[C@H](CC3CCCCC3)NC(=O)[C@H](CCN)NC(=O)[C@@H](CC(C)C)NC(=O)[C@H](CCCN)NC(=O)[C@H](Cc3ccc(O)cc3)NC(=O)[C@H](Cc3ccc(-c4ccccc4)cc3)NC(=O)[C@H](C(C)C)NC2=O)c1` [Compound 2264] ({CH2CO}-[Dap]Y(Carboxymethyl)D[Phe(3-Me)]V[Bip]Y[Orn][dL][Dab][Cha]V[Orn]C-NH2; thioether N-14), the pIC50 under setting [1] is 7.92.

For the compound `CC(C)C[C@@H]1NC(=O)[C@H](CCCNC(=N)N)NC(=O)[C@@H](CC(C)C)NC(=O)[C@H](CN)NC(=O)[C@H](CCCNC(=N)N)NC(=O)[C@H](Cc2ccc(-c3ccccc3)cc2)NC(=O)[C@H](C(C)C)NC(=O)[C@H](Cc2c[nH]c3ccccc23)NC(=O)[C@H](CC(=O)O)NC(=O)[C@H](Cc2ccc(O)cc2)NC(=O)[C@H](CC(N)=O)NC(=O)CSC[C@@H](C(=O)N[C@@H](C)C(N)=O)NC(=O)[C@H]([C@@H](C)O)NC(=O)[C@H](C(C)C)NC1=O` [Compound 1010] ({CH2CO}-NYDWV[Bip]R[Dap][dL]RLVTCA-NH2; thioether N-14), the pIC50 under setting [1] is 7.00.

`CC(C)C[C@@H]1NC(=O)[C@H](Cc2c[nH]c3ccccc23)NC(=O)[C@H](CC(=O)O)NC(=O)[C@H](Cc2ccc(O)cc2)NC(=O)[C@H](Cc2ccccc2)NC(=O)CSC[C@@H](C(=O)NCC(N)=O)NC(=O)[C@H]([C@@H](C)O)NC(=O)[C@H](C(C)C)NC(=O)[C@H](CC(C)C)NC(=O)[C@H](CCN)NC(=O)[C@@H](CC(C)C)NC(=O)[C@H](CCCN)NC(=O)[C@H](C(C)C)NC(=O)[C@H](Cc2ccc(-c3ccccc3)cc2)NC1=O` [Compound 1068] ({CH2CO}-FYDWL[Bip]V[Orn][dL][Dab]LVTCG-NH2; thioether N-14): the negative logarithm of the IC50 (pIC50) under setting [1] was 7.76.

Consider `CC[C@H](C)[C@@H]1NC(=O)[C@H](Cc2ccc(-c3ccccc3)cc2)NC(=O)[C@H](C(C)C)NC(=O)[C@H](Cc2c[nH]c3ccccc23)NC(=O)[C@H](CC(=O)O)NC(=O)[C@H](Cc2ccc(O)cc2)NC(=O)[C@H](CC(N)=O)NC(=O)CSC[C@@H](C(=O)NCC(N)=O)NC(=O)[C@H](CO)NC(=O)[C@H](C(C)C)NC(=O)[C@H](CC(C)C)NC(=O)[C@H](CCN)NC(=O)[C@@H](CC(C)C)NC(=O)[C@H](CCCCN)NC1=O` [Compound 1122] ({CH2CO}-NYDWV[Bip]IK[dL][Dab]LVSCG-NH2; thioether N-14), for which, under setting [1], the pIC50 was 7.79.

`Cc1cccc(C[C@@H]2NC(=O)[C@H](CC(=O)O)NC(=O)[C@H](Cc3ccc(OCC(=O)O)cc3)NC(=O)[C@H](CN)NC(=O)CSC[C@@H](C(=O)N[C@@H](C)C(N)=O)NC(=O)[C@H]([C@@H](C)O)NC(=O)[C@H](C(C)C)NC(=O)[C@H](CC3CCCCC3)NC(=O)[C@H](CCN)NC(=O)[C@@H](CC(C)C)NC(=O)[C@H](CCCN)NC(=O)[C@H](CCCNC(N)=O)NC(=O)[C@H](Cc3ccc(-c4ccccc4)cc3)NC(=O)[C@H](C(C)C)NC2=O)c1` [Compound 1208]: the pIC50 under setting [1] was 8.57.

Turning to `CC(C)C[C@@H]1NC(=O)[C@H](CCN)NC(=O)[C@@H](CC(C)C)NC(=O)[C@H](CCCN)NC(=O)[C@H](CCCNC(N)=O)NC(=O)[C@H](Cc2ccc(-c3ccccc3)cc2)NC(=O)[C@H](C(C)C)NC(=O)[C@H](Cc2c[nH]c3ccccc23)NC(=O)[C@H](CC(=O)O)NC(=O)[C@H](Cc2ccc(OCC(=O)O)cc2)NC(=O)[C@H](CN)NC(=O)CSC[C@@H](C(=O)N[C@@H](C)C(N)=O)NC(=O)[C@H]([C@@H](C)O)NC(=O)[C@H](C(C)C)NC1=O` [Compound 1040] ({CH2CO}-[Dap]Y(Carboxymethyl)DWV[Bip][Cit][Orn][dL][Dab]LVTCA-NH2; thioether N-14), the pIC50 under setting [1] was 7.61.
